Reference: US20250319068A1, “TREATMENT OF DISEASES VIA ADMINISTRATION OF BUNTANETAP AND AN […] AGENT” (ANNOVIS BIO, INC., priority 2024, published 2025)
Entries after “also recorded” stand apart in the source; their conditions may differ. Where two headings read alike, the source gives them in different places.

Key:
APP [1] = assay: APP in vitro, Western blot in SH-SY-5Y cells (FIG. 1); format: cell-based; conditions: SH-SY-5Y human neuroblastoma cells; 0, 0.1, 1, 5 and 10 μM
αSYN [2] = conditions: transgenic Parkinson's animals; cited from earlier work
[3] = test system: patients with mild to moderate AD; assay: Phase II/III trial in mild to moderate AD, 12 weeks (NCT05686044); format: in vivo, human
Protocol: A randomized, double-blind, placebo-controlled Phase II/III study trial investigating the efficacy, safety, and tolerability of buntanetap in patients with mild to moderate AD was conducted. This was a dose-ranging study where patients received either one of three doses of buntanetap (7.5 mg, 15 mg, or 30 mg) or placebo on top of their standard of care for 12 weeks. In this study, over 700 patients were screened, a total of 353 patients were enrolled, and 325 patients completed the study across 54 sites in the US. The study included mild to moderate AD patients whose Mini Mental State Examination (MMSE) scores at baseline ranged from 14 to 24. (www.clinicaltrials.gov (NCT05686044)).
Beyond safety, the trial assessed the changes in two co-primary endpoints: Alzheimer's Disease Assessment Scale-Cognitive Subscale 11 (ADAS-Cog 11) and Alzheimer's Disease Cooperative Study Clinician's Global Impression of Change (ADCS-CGIC), which assess cognition and activities of daily living. The study monitored for safety and collected plasma to measure several biomarkers to assess the disease state, potential disease progression, and treatment effects.
The treatment response in the current study was not related to a patient's age or sex.
EOT-End of Treatment *P<0.05; **P<0.01; ***P<0.001.
When the baseline MMSE scores for patients positive for AD according to their pTau217/tTau >4.2% ratio were subdivided, a dose-dependent relationship to MMSE at baseline was observed. It was concluded that the response to buntanetap treatment is more pronounced in mild AD patients than in those with more advanced AD. The response in the 30 mg dose treatment group R2=0.17 (R^2 or the coefficient of determination), p <0.001, indicates statistical significance of the MMSE score, which was not evident in the placebo group.

αSYN [4] = conditions: neuroblastoma cells; cited from earlier work
[5] = Phase 1 single and multiple ascending dose safety, tolerance, pharmacokinetic studies; conditions: pharmacokinetic analyses of Phase I studies
Protocol: This publication reported the results of a Phase 2a Clinical Study which was a double-blind, placebo-controlled, multi-center study of 14 early AD patients and 54 early PD patients. AD patients were given either 80 mg buntanetap or placebo QD. PD patients were given 5 mg, 10 mg, 20 mg, 40 mg, 80 mg buntanetap or placebo QD. The primary endpoint was safety and tolerability; secondary endpoint is pharmacokinetics of buntanetap in plasma.
The double phase 2 clinical trial recruited 14 AD (Alzheimer's disease) and 54 patients and treated them over 25 with a once daily dose of buntanetap. The 14 AD patients receive either 80 mg QD or placebo, whereas the 54 PD (Parkinson's disease) patients received 5, 10 20, 40 80 mg QD or placebo.

tau [6] = conditions: unpublished observation, Peter Davies Laboratory; cited from earlier work
[7] = test system: APP/PS1 transgenic (tg) mouse model of AD; conditions: cited from earlier work
[8] = test system: early AD patients and early PD patients; conditions: cited from earlier work
rat acute glaucoma model = conditions: cited from earlier work
Huntingtin Protein = conditions: through Translational Suppression; cited from earlier work
APP [9] = conditions: neuroblastoma cells; cited from earlier work
[10] = test system: human SNCAA53T tg mouse model of PD; conditions: cited from earlier work
[11] = test system: CSF levels of sAPPα, sAPPβ, Aβ42, Tau (total and phosphorylated), alpha-synuclein and inflammatory markers; conditions: cited from earlier work
tau [12] = conditions: Human tau mice; unpublished observation; cited from earlier work
APP and its fragments [13] = assay: APP in vivo in APP/PS1 transgenic AD mice, hippocampus (FIG. 2A); set-up: species or system mouse
Source text: FIG. 2A is a Table, collection of graphs and a Western blot showing that buntanetap treatment of APP/PS1 transgenic AD mice reduced APP and its fragments in hippocampus.
FIG. 2A, APP in vivo. […] GAPDH and Synaptophysin were loading controls. FIG. 2 also includes a collection of graphs showing relative density of APP plotted against control and time after buntanetap treatment; relative density of CTFβ plotted against control and time after buntanetap treatment; relative density of CTFα plotted against control and time after buntanetap treatment; Aβ42 levels in brain tissue plotted against control and time after buntanetap treatment; and Aβ40 levels in brain tissue plotted against control and time after buntanetap treatment. Finally, FIG. 2 also includes a Western blot showing levels of APP, NSB, CTFβ, and CTFα after buntanetap treatment over time (minutes).

[14] = test system: traumatic brain injury rats; conditions: cited from earlier work
[15] = test system: fully differentiated Down syndrome nerve cells; conditions: cited from earlier work
[16] = test system: CSF levels of sAPPα, sAPPβ, Aβ42, Tau (total and phosphorylated), alpha-synuclein and inflammatory markers; assay: Study of MCI subjects: CSF biomarkers before and after 10 days of buntanetap; conditions: before and after 10 days of administration
Source text: FIG. 3 is a study of subjects with mild cognitive impairment (MCI) for early proof of mechanism (POM) using a well-tolerated dose of buntanetap. Before and after 10 days of buntanetap administration to the MCI subjects, plasma, and cerebrospinal fluid (CSF) samples were obtained for analysis of levels of secreted(s) APPα and APPβ, and Aβ42, Tau (total and phosphorylated), and inflammatory markers.

[17] = cited from earlier work
[18] = test system: Ts65dn mouse model of Down Syndrome (DS); conditions: cited from earlier work
APP and its fragments [19] = conditions: APP/PS1 transgenic mice; cited from earlier work
[20] = test system: dementia with Lewy bodies (DLB) in men; conditions: cited from earlier work; for risk of DLB lower compared to 5ARIs / risk of DLB lower compared to tamsulosin: terazosin, doxazosin, or alfuzosin pooled
[21] = clinical studies; cited from earlier work
[22] = men newly started on terazosin, doxazosin, or alfuzosin (pooled) vs matched men taking tamsulosin

CN1CC[C@]2(C)c3cc(OC(=O)Nc4ccccc4)ccc3N(C)C12 (stereo partly drawn) [Buntanetap, (3aR)-1,3a,8-trimethyl-1,2,3,3a,8,8a-hexahydropyrrolo[2,3-b]indol-5-yl phenylcarbamate]
APP in relation to Actin standard (Western blot) (APP [1]): lowers APP in vitro in a dose-dependent manner | αSYN in vivo in the brain and in the gut (αSYN [2]): lowers αSYN | Non-Responders (Number) ([3]; 7.5 mg): 5 | Non-Responders (Percentage) ([3]; 7.5 mg): (26.32%) | Responders (Number) ([3]; 7.5 mg): 14 | Responders (Percentage) ([3]; 7.5 mg): (73.68%)** | Non-Responders (Number) ([3]; 15 mg): 7 | Non-Responders (Percentage) ([3]; 15 mg): (28.00%) | Responders (Number) ([3]; 15 mg): 18 | Responders (Percentage) ([3]; 15 mg): (72.00%)** | Non-Responders (Number) ([3]; 30 mg): 3 | Non-Responders (Percentage) ([3]; 30 mg): (12.50%) | Responders (Number) ([3]; 30 mg): 21 | Responders (Percentage) ([3]; 30 mg): (87.50%)*** | difference in the proportion of participants who improved relative to placebo ([3]; 30 mg group): three-fold difference | ADAS-Cog 11 scores relative to placebo ([3]; patients with mild AD, each treatment dose): significantly higher improvement | αSYN in vitro (αSYN [4]): lowers αSYN | brain concentration relative to plasma [5]: about 8 times | tau in vitro (tau [6]): lowers tau | synaptic transmission in hippocampus ([7]; APP/PS1 tg mice): Normalized impaired synaptic transmission | memory and learning ([7]; APP/PS1 tg mouse model of AD): Restored memory and learning | axonal integrity and synaptic function ([8]; AD and PD cohorts): improving; also recorded: improved | inflammatory factors / markers ([8]; AD and PD cohorts): trend in lowering levels; also recorded: reduced | neurotoxic protein biomarkers ([8]; AD and PD cohorts): trend in lowering levels; also recorded: reduced | safety and tolerability ([8]; AD and PD patients, doses up to 80 mg): well tolerated; also recorded: safe and promising | crossing of the blood brain barrier ([8]; AD and PD patients): crossed the blood brain barrier | ADAS-Cog11 and WAIS coding (cognition) ([8]; AD patients, 80 mg QD): statistically significant improvements; also recorded: improved cognition | motor function as measured by MDS-UPDRS (Part II, III, IV and total) ([8]; PD patients, 5-80 mg QD, maximum improvement for 10 & 20 mg): improved at all doses motor function | MDS-UPDRS and WAIS coding ([8]; PD patients): statistically significant improvements | WAIS speed and accuracy ([8]; PD patients): improved | Cmax and AUC ([8]; plasma, up to 80 mg QD): increased with dose without evidence for a plateau | retina (rat acute glaucoma model; acute glaucoma): Preserved the retina | nerve cell protection (rat acute glaucoma model; rat acute glaucoma model): protected nerve cells | levels of Huntingtin Protein (Huntingtin Protein): reduced the levels of Huntingtin Protein | levels of APP in vitro (APP [9]): lowers levels of APP | colonic motility [10]: Restored colonic motility | duration of effect in lowering neurotoxic proteins and inflammation after the last dose ([11]; CSF sampling period after the last dose): ≥ 12 h | levels of APP, Tau, and αSYN in the cerebrospinal fluid (CSF) ([11]; MCI subjects, 4×60 mg/day): normalized | half-life in CSF ([11]; MCI subjects): > 12 h | inflammation in human CSF ([11]; MCI subjects): lowered inflammation | CSF Aβ42 ([11]; five MCI subjects): trend to lower | CSF levels of sAPPα, sAPPβ, t-tau, p-tau, and specific inflammatory markers ([11]; five MCI subjects): significantly lowered | tau in vivo (tau [12]): lowers tau | duration of reduction of APP and all related peptides in hippocampus after the last dose (APP and its fragments [13]; APP/PS1 mice): at least 9 hours | APP and its fragments in hippocampus (APP and its fragments [13]; APP/PS1 transgenic AD mice): reduced | inflammation in the rat brain ([14]; after TBI): lowered inflammation | nerve cell protection in rat substantia Ingra ([14]; after TBI): protected nerve cells | synaptic transmission in rat striatum ([14]; after traumatic brain injury (TBI)): Normalized impaired synaptic transmission | memory and learning ([14]; traumatic brain injury rats): Preserved memory and learning | anterograde and retrograde vesicle transport [15]: Normalized anterograde and retrograde vesicle transport | APP/Aβ, tau/phosphor-tau and alpha-synuclein in the spinal fluid (FIG. 3) [16]: normalized | tolerability ([17]; healthy human volunteers, doses up to 4×60 mg daily X 10 days): well tolerated | terminal half-life ([17]; plasma, cleared biphasically): 4.3 to 4.7 h | memory and learning [18]: Restored memory and learning | levels of APP and all its fragments (APP and its fragments [19]): lowers levels of APP and all its fragments

COc1cc2nc(N(C)CCCNC(=O)C3CCCO3)nc(N)c2cc1OC (stereo not drawn) [alfuzosin]
hazard ratio [HR] of developing DLB [20, 22]: 0.60 | risk of DLB lower compared to 5ARIs [20]: 37% | risk of DLB lower compared to tamsulosin [20]: 40% | hazard ratio [HR] of developing DLB ([20]; vs matched men taking 5ARI): 0.73

COc1cc2nc(N3CCN(C(=O)C4COc5ccccc5O4)CC3)nc(N)c2cc1OC (stereo not drawn) [doxazosin]
hazard ratio [HR] of developing DLB [20, 22]: 0.60 | risk of DLB lower compared to 5ARIs [20]: 37% | risk of DLB lower compared to tamsulosin [20]: 40% | hazard ratio [HR] of developing DLB ([20]; vs matched men taking 5ARI): 0.73

CN1CC[C@@]2(C)c3cc(OC(=O)Nc4ccccc4)ccc3N(C)[C@@H]12 [phenserine, (−)-N-phenylcarbamoyl eseroline]
side effects [21]: high cholinomimetic side effects

CCOc1ccccc1OCCN[C@H](C)Cc1ccc(OC)c(S(N)(=O)=O)c1 [tamsulosin]
hazard ratio [HR] of developing DLB ([20]; vs matched men taking 5ARI): 1.17

COc1cc2nc(N3CCN(C(=O)C4CCCO4)CC3)nc(N)c2cc1OC (stereo not drawn) [terazosin]
hazard ratio [HR] of developing DLB [20, 22]: 0.60 | risk of DLB lower compared to 5ARIs [20]: 37% | risk of DLB lower compared to tamsulosin [20]: 40% | hazard ratio [HR] of developing DLB ([20]; vs matched men taking 5ARI): 0.73
